Laboratory results reported in ChEMBL document CHEMBL1201862, “PubChem BioAssay data set” (2004).
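96-well plates; 48 h exposure; 5 concentrations. Endpoints by linear interpolation between flanking doses. Not reached: highest tested concentration assigned. GI50 = concentration required for 50% inhibition of growth.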 Active and inactive are the calls of the source. No stated cut-off is given here; in the data, active = GI50 up to about 1.1 µM and inactive = higher.

Columns and labels:
Assay in all cases: NCI anticancer screen, dose series, 48 h
A498 = test system: A498
UACC-62 = test system: UACC-62
OVCAR-4 = test system: OVCAR-4
786-0 = test system: 786-0
EKVX = test system: EKVX
LOX IMVI = test system: LOX IMVI
A549 = test system: A549
DLD-1 = test system: DLD-1
HOP-62 = test system: HOP-62
LXFL 529 = test system: LXFL 529
HCT-15 = test system: HCT-15
RPMI-8226 = test system: RPMI-8226
U-251 = test system: U-251
UO-31 = test system: UO-31
NCI-H23 = test system: NCI-H23
ACHN = test system: ACHN
CAKI-1 = test system: CAKI-1
SNB-78 = test system: SNB-78
M19-MEL = test system: M19-MEL
SR = test system: SR
HCT-116 = test system: HCT-116
TK-10 = test system: TK-10
SNB-19 = test system: SNB-19
SF-539 = test system: SF-539
NCI-H460 = test system: NCI-H460
DMS-114 = test system: DMS-114
M14 = test system: M14
OVCAR-3 = test system: OVCAR-3
SN12C = test system: SN12C
K562 = test system: K562
OVCAR-5 = test system: OVCAR-5
XF498 = test system: XF498
SF-295 = test system: SF-295
KM12 = test system: KM12
OVCAR-8 = test system: OVCAR-8
NCI-H226 = test system: NCI-H226
SF-268 = test system: SF-268
COLO 205 = test system: COLO 205
SK-MEL-5 = test system: SK-MEL-5
HL-60 = test system: HL-60
CCRF-CEM = test system: CCRF-CEM
KM-20L2 = test system: KM-20L2
SW-620 = test system: SW-620
RXF 631 = test system: RXF 631
HT-29 = test system: HT-29
SK-MEL-2 = test system: SK-MEL-2
MOLT-4 = test system: MOLT-4
IGROV-1 = test system: IGROV-1
UACC-257 = test system: UACC-257
SK-OV-3 = test system: SK-OV-3
NCI-H522 = test system: NCI-H522
Malme-3M = test system: Malme-3M
HCC 2998 = test system: HCC 2998
HOP-18 = test system: HOP-18
RXF 393 = test system: RXF 393
DMS-273 = test system: DMS-273
SNB-75 = test system: SNB-75
SK-MEL-28 = test system: SK-MEL-28
HOP-92 = test system: HOP-92

Structure (SMILES): CC1=CCC2(C#N)CCC1C2=O (stereo not given)
- GI50 (A498): > 100 µM (inactive)
- GI50 (UACC-62): > 100 µM (inactive)
- GI50 (OVCAR-4): > 100 µM (inactive)
- GI50 (786-0): > 100 µM (inactive)
- GI50 (EKVX): > 100 µM (inactive)
- GI50 (LOX IMVI): > 100 µM (inactive)
- GI50 (A549): > 100 µM (inactive)
- GI50 (DLD-1): > 100 µM (inactive)
- GI50 (HOP-62): > 100 µM (inactive)
- GI50 (LXFL 529): > 100 µM (inactive)
- GI50 (HCT-15): > 100 µM
- GI50 (RPMI-8226): > 100 µM (inactive)
- GI50 (U-251): > 100 µM (inactive)
- GI50 (UO-31): > 100 µM (inactive)
- GI50 (NCI-H23): > 100 µM (inactive)
- GI50 (ACHN): > 100 µM (inactive)
- GI50 (CAKI-1): > 100 µM (inactive)
- GI50 (SNB-78): > 100 µM (inactive)
- GI50 (M19-MEL): > 100 µM (inactive)
- GI50 (SR): > 100 µM (inactive)
- GI50 (HCT-116): > 100 µM (inactive)
- GI50 (TK-10): > 100 µM (inactive)
- GI50 (SNB-19): > 100 µM (inactive)
- GI50 (SF-539): > 100 µM (inactive)
- GI50 (NCI-H460): > 100 µM (inactive)
- GI50 (DMS-114): > 100 µM (inactive)
- GI50 (M14): > 100 µM (inactive)
- GI50 (OVCAR-3): > 100 µM (inactive)
- GI50 (SN12C): > 100 µM (inactive)
- GI50 (K562): > 100 µM (inactive)
- GI50 (OVCAR-5): > 100 µM (inactive)
- GI50 (XF498): > 100 µM (inactive)
- GI50 (SF-295): > 100 µM (inactive)
- GI50 (KM12): > 100 µM (inactive)
- GI50 (OVCAR-8): > 100 µM (inactive)
- GI50 (NCI-H226): > 100 µM (inactive)
- GI50 (SF-268): > 100 µM (inactive)
- GI50 (COLO 205): > 100 µM (inactive)
- GI50 (SK-MEL-5): > 100 µM (inactive)
- GI50 (HL-60): > 100 µM (inactive)
- GI50 (CCRF-CEM): > 100 µM (inactive)
- GI50 (KM-20L2): > 100 µM (inactive)
- GI50 (SW-620): > 100 µM (inactive)
- GI50 (RXF 631): > 100 µM (inactive)
- GI50 (HT-29): > 100 µM (inactive)
- GI50 (SK-MEL-2): > 100 µM (inactive)
- GI50 (MOLT-4): > 100 µM (inactive)
- GI50 (IGROV-1): > 100 µM (inactive)
- GI50 (UACC-257): > 100 µM (inactive)
- GI50 (SK-OV-3): > 100 µM (inactive)
- GI50 (NCI-H522): > 100 µM (inactive)
- GI50 (Malme-3M): > 100 µM (inactive)

Structure (SMILES): Cc1ccc(C)c(N2C(=O)C(=O)C(c3nc4ccccc4o3)C(=O)C2=O)c1
- GI50 (HCC 2998): > 100 µM (inactive)
- GI50 (A498): > 100 µM (inactive)
- GI50 (HOP-18): > 100 µM (inactive)
- GI50 (RXF 393): > 100 µM (inactive)
- GI50 (DMS-273): > 100 µM (inactive)
- GI50 (UACC-62): 43.9 µM (inactive)
- GI50 (OVCAR-4): 37.6 µM (inactive)
- GI50 (786-0): > 100 µM (inactive)
- GI50 (EKVX): > 100 µM (inactive)
- GI50 (A549): > 100 µM (inactive)
- GI50 (DLD-1): 22.9 µM (inactive)
- GI50 (HOP-62): > 100 µM (inactive)
- GI50 (LXFL 529): 48.9 µM (inactive)
- GI50 (HCT-15): 99.5 µM
- GI50 (U-251): 96.6 µM (inactive)
- GI50 (UO-31): > 100 µM (inactive)
- GI50 (SNB-75): 95.1 µM (inactive)
- GI50 (NCI-H23): 43.6 µM (inactive)
- GI50 (ACHN): > 100 µM (inactive)
- GI50 (CAKI-1): > 100 µM (inactive)
- GI50 (SNB-78): > 100 µM (inactive)
- GI50 (M19-MEL): 59.2 µM (inactive)
- GI50 (SR): 28.8 µM (inactive)
- GI50 (HCT-116): 27.1 µM (inactive)
- GI50 (TK-10): > 100 µM (inactive)
- GI50 (SNB-19): > 100 µM (inactive)
- GI50 (SF-539): > 100 µM (inactive)
- GI50 (NCI-H460): > 100 µM (inactive)
- GI50 (DMS-114): 44 µM (inactive)
- GI50 (M14): 36.1 µM (inactive)
- GI50 (SK-MEL-28): 34 µM (inactive)
- GI50 (OVCAR-3): 39.4 µM (inactive)
- GI50 (SN12C): > 100 µM (inactive)
- GI50 (HOP-92): 92 µM (inactive)
- GI50 (SF-295): > 100 µM (inactive)
- GI50 (KM12): > 100 µM (inactive)
- GI50 (OVCAR-8): > 100 µM (inactive)
- GI50 (NCI-H226): > 100 µM (inactive)
- GI50 (SF-268): > 100 µM (inactive)
- GI50 (COLO 205): 32.9 µM (inactive)
- GI50 (SK-MEL-5): 67.5 µM (inactive)
- GI50 (HL-60): 17.3 µM (inactive)
- GI50 (CCRF-CEM): 17 µM (inactive)
- GI50 (KM-20L2): > 100 µM (inactive)
- GI50 (SW-620): 46.3 µM (inactive)
- GI50 (RXF 631): > 100 µM (inactive)
- GI50 (HT-29): 49.5 µM (inactive)
- GI50 (SK-MEL-2): > 100 µM (inactive)
- GI50 (MOLT-4): 27.2 µM (inactive)
- GI50 (IGROV-1): 35.9 µM (inactive)
- GI50 (UACC-257): 32 µM (inactive)
- GI50 (SK-OV-3): > 100 µM (inactive)
- GI50 (Malme-3M): 49.2 µM (inactive)

Structure (SMILES): O=C(/C=C/c1cccc([N+](=O)[O-])c1)c1ccc([N+](=O)[O-])cc1
- GI50 (HCC 2998): > 100 µM (inactive)
- GI50 (A498): > 100 µM (inactive)
- GI50 (RXF 393): > 100 µM (inactive)
- GI50 (DMS-273): > 100 µM (inactive)
- GI50 (UACC-62): > 100 µM (inactive)
- GI50 (OVCAR-4): > 100 µM (inactive)
- GI50 (786-0): > 100 µM (inactive)
- GI50 (EKVX): > 100 µM (inactive)
- GI50 (LOX IMVI): > 100 µM (inactive)
- GI50 (A549): > 100 µM (inactive)
- GI50 (DLD-1): > 100 µM (inactive)
- GI50 (HOP-62): > 100 µM (inactive)
- GI50 (LXFL 529): > 100 µM (inactive)
- GI50 (HCT-15): > 100 µM
- GI50 (U-251): > 100 µM (inactive)
- GI50 (UO-31): > 100 µM (inactive)
- GI50 (SNB-75): > 100 µM (inactive)
- GI50 (NCI-H23): > 100 µM (inactive)
- GI50 (ACHN): > 100 µM (inactive)
- GI50 (CAKI-1): > 100 µM (inactive)
- GI50 (SNB-78): > 100 µM (inactive)
- GI50 (M19-MEL): > 100 µM (inactive)
- GI50 (SR): > 100 µM (inactive)
- GI50 (HCT-116): > 100 µM (inactive)
- GI50 (TK-10): > 100 µM (inactive)
- GI50 (SNB-19): > 100 µM (inactive)
- GI50 (SF-539): > 100 µM (inactive)
- GI50 (NCI-H460): > 100 µM (inactive)
- GI50 (M14): > 100 µM (inactive)
- GI50 (SK-MEL-28): > 100 µM (inactive)
- GI50 (OVCAR-3): > 100 µM (inactive)
- GI50 (SN12C): > 100 µM (inactive)
- GI50 (K562): > 100 µM (inactive)
- GI50 (OVCAR-5): > 100 µM (inactive)
- GI50 (XF498): > 100 µM (inactive)
- GI50 (SF-295): > 100 µM (inactive)
- GI50 (KM12): > 100 µM (inactive)
- GI50 (OVCAR-8): > 100 µM (inactive)
- GI50 (NCI-H226): > 100 µM (inactive)
- GI50 (SF-268): > 100 µM (inactive)
- GI50 (COLO 205): > 100 µM (inactive)
- GI50 (SK-MEL-5): > 100 µM (inactive)
- GI50 (HL-60): > 100 µM (inactive)
- GI50 (CCRF-CEM): > 100 µM (inactive)
- GI50 (KM-20L2): > 100 µM (inactive)
- GI50 (SW-620): > 100 µM (inactive)
- GI50 (RXF 631): > 100 µM (inactive)
- GI50 (HT-29): > 100 µM (inactive)
- GI50 (SK-MEL-2): > 100 µM (inactive)
- GI50 (MOLT-4): > 100 µM (inactive)
- GI50 (IGROV-1): > 100 µM (inactive)
- GI50 (UACC-257): > 100 µM (inactive)
- GI50 (SK-OV-3): > 100 µM (inactive)
- GI50 (NCI-H522): > 100 µM (inactive)
- GI50 (Malme-3M): > 100 µM (inactive)
